Assays:
[1] = biological target: Estrogen receptor (Rattus norvegicus) (UniProt P06211+Q62986); test: Relative binding affinity for estrogen receptor; type: protein assay
IGROV-1 [2] = test: Cytotoxic effect on growth inhibition of ovarian cancer IGROVI cells; type: functional; details: Homo sapiens
MOLT-4 [3] = test: Cytotoxic effect on leukemia MOLT-4 cells; type: functional; details: Homo sapiens
LOX IMVI = test: Cytotoxic effect on growth inhibition of melanoma LOX IMVI cells; type: functional; details: Homo sapiens
MCF7 [4] = test: Cytotoxic effect on growth inhibition of breast cancer MCF-7 cells; type: functional; details: Homo sapiens
MCF7 [5] = test: Cytotoxic effect of growth inhibition of breast cancer MCF-7/ADR-RES cells; type: functional; details: Homo sapiens
MDA-MB-231 = test: Cytotoxic effect on growth inhibition of breast cancer MDA-MB-231/ATCC cells; type: functional; details: Homo sapiens
NCI-H322M [6] = test: Cytotoxic effect on nonsmall cell lung cancer NCI-H322M cells; type: functional; details: Homo sapiens
PC-3 = test: Cytotoxic effect on growth inhibition of prostate cancer PC-3 cells; type: functional; details: Homo sapiens
SN12C = test: Cytotoxic effect on growth inhibition of renal cancer SN12C cells; type: functional; details: Homo sapiens
U-251 = test: Cytotoxic effect on growth inhibition of CNS cancer U251 cells; type: functional; details: Homo sapiens
[7] = biological target: DNA topoisomerase 2-alpha (Homo sapiens, UniProt P11388); test: Inhibitory activity against topoisomerase II determined in catenation inhibition assay
DNA topoisomerase 2-alpha, sequence (P11388 whole entry): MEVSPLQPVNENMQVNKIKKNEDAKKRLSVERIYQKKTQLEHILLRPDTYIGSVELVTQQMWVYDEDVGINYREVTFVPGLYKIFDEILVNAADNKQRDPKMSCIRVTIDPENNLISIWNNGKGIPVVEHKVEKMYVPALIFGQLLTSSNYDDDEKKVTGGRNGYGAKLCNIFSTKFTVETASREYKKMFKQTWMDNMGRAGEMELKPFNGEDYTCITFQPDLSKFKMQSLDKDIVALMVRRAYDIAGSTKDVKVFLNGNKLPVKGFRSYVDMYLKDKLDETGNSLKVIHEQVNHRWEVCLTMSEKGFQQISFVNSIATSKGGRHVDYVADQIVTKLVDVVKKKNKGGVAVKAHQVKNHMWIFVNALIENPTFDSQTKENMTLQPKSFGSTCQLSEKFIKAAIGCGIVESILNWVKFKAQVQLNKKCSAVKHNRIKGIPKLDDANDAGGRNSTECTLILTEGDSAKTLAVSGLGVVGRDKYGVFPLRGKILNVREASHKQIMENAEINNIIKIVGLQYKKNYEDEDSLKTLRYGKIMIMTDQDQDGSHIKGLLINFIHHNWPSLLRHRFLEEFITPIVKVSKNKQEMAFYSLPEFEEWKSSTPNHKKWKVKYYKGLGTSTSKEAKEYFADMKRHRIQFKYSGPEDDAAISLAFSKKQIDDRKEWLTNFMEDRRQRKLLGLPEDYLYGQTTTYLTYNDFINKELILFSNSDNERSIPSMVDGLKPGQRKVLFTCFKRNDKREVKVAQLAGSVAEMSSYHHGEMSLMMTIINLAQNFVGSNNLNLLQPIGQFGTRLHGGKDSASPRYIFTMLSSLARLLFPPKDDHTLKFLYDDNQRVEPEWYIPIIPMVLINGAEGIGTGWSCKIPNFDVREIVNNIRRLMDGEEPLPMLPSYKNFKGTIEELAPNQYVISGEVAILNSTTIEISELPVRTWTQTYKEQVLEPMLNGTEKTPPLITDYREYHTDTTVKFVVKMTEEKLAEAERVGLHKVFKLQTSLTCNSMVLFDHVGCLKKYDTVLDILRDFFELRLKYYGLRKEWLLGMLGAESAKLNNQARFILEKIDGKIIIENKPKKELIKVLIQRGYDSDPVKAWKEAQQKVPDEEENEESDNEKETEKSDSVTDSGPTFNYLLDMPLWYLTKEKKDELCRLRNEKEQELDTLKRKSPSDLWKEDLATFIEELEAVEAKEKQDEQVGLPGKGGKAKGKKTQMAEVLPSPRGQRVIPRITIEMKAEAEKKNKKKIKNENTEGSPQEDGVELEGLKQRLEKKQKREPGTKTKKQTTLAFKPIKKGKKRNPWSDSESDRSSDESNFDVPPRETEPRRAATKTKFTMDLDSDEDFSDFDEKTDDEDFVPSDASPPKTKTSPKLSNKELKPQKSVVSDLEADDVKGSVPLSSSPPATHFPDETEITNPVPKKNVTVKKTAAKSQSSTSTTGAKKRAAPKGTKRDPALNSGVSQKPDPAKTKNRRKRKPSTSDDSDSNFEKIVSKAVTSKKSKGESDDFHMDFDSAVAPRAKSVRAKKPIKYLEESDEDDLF

HCT-116 = test: Cytotoxic effect on growth inhibition of colon cancer HCT116 cells; type: functional; details: Homo sapiens
Hs-578T = test: Cytotoxic effect on growth inhibition of breast cancer HS 578T cells; type: functional; details: Homo sapiens
MOLT-4 [8] = test: Cytotoxic effect on growth inhibition of leukemia MOLT-4 cells; type: functional; details: Homo sapiens
NCI-H322M [9] = test: Cytotoxic effect on growth inhibition of nonsmall cell lung cancer NCI-H322M cells; type: functional; details: Homo sapiens
IGROV-1 [10] = test: Cytotoxic effect on ovarian cancer IGROVI cells; type: functional; details: Homo sapiens

relative binding affinity (RBA) [1]	IC50 [7] [µM]	Structure (SMILES)	GI50 (IGROV-1 [2]) [µM]	GI50 (MOLT-4 [3]) [µM]	GI50 (LOX IMVI) [µM]	GI50 (MCF7 [4]) [µM]	GI50 (MCF7 [5]) [µM]	GI50 (MDA-MB-231) [µM]	GI50 (NCI-H322M [6]) [µM]	GI50 (PC-3) [µM]	GI50 (SN12C) [µM]	GI50 (U-251) [µM]	GI50 (HCT-116) [µM]	GI50 (Hs-578T) [µM]	GI50 (MOLT-4 [8]) [µM]	GI50 (NCI-H322M [9]) [µM]	GI50 (IGROV-1 [10]) [µM]
0.303	> 200	Cc1c2ccncc2c(C)c2c1[nH]c1ccc(C(=O)NCCCCCCNC(=O)C[C@]3(O)CC[C@H]4[C@@H]5CCc6cc(O)ccc6[C@H]5CC[C@@]43C)cc12	> 100	–	51.4	–	> 100	34.7	–	74	> 100	55.9	31.2	> 100	38.3	28	–
0.041	–	C[C@]12CC[C@@H]3c4ccc(O)cc4CC[C@H]3[C@@H]1CC[C@@]2(O)CC(=O)NCCCCCCN	–	–	–	–	–	–	–	–	–	–	–	–	–	–	–
0.056	–	CC(C)(C)OC(=O)NCCCCCCNC(=O)C[C@]1(O)CC[C@H]2[C@@H]3CCc4cc(O)ccc4[C@H]3CC[C@@]21C	–	–	–	–	–	–	–	–	–	–	–	–	–	–	–

The next lines start with the compound.

Structure (SMILES)	relative binding affinity (RBA) [1]	IC50 [7] [µM]	GI50 (IGROV-1 [2]) [µM]	GI50 (MOLT-4 [3]) [µM]	GI50 (LOX IMVI) [µM]	GI50 (MCF7 [4]) [µM]	GI50 (MCF7 [5]) [µM]	GI50 (MDA-MB-231) [µM]	GI50 (NCI-H322M [6]) [µM]	GI50 (PC-3) [µM]	GI50 (SN12C) [µM]	GI50 (U-251) [µM]	GI50 (HCT-116) [µM]	GI50 (Hs-578T) [µM]	GI50 (MOLT-4 [8]) [µM]	GI50 (NCI-H322M [9]) [µM]	GI50 (IGROV-1 [10]) [µM]
CCOC(=O)C[C@]1(O)CC[C@H]2[C@@H]3CCc4cc(O)ccc4[C@H]3CC[C@@]21C	3.66	–	–	–	–	–	–	–	–	–	–	–	–	–	–	–	–
C[C@]12CC[C@@H]3c4ccc(O)cc4CC[C@H]3[C@@H]1CC[C@@]2(O)CC(=O)O	0.039	–	–	–	–	–	–	–	–	–	–	–	–	–	–	–	–
Cc1c2c(c(C)c3c1[nH]c1ccccc13)CN(C(=O)NCCCCCCNC(=O)C[C@]1(O)CC[C@H]3[C@@H]4CCc5cc(O)ccc5[C@H]4CC[C@@]31C)C=C2	0.132	24.1	8.53	2.9	7.97	3.39	9.96	19.7	2.68	3.51	9.56	7.64	3.55	16.6	–	–	–
Cc1c2cnccc2c(C)c2c1c1ccccc1n2CC(=O)NCCCCCCNC(=O)C[C@]1(O)CC[C@H]2[C@@H]3CCc4cc(O)ccc4[C@H]3CC[C@@]21C	–	> 200	–	46.3	50.9	> 100	> 100	> 100	–	57.1	> 100	72.4	39.9	46.8	–	71.4	> 100
Cc1c2ccncc2c(C)c2c1[nH]c1ccccc12 [ELLIPTECINE]	–	–	0.86	0.38	0.56	0.71	0.74	–	–	–	0.73	0.93	0.29	–	–	0.31	–

From ChEMBL document CHEMBL1129613, “Design, synthesis, and biological evaluation of ellipticine-estradiol conjugates” (J Med Chem, 1996)
